Converted amounts (≈) assume the structure as drawn. “And” between values parts separate entries of the source, which are not always exact repeats. Identical values can stand only once. “Also recorded” adds a separate entry of the source. Like-named read-outs stand apart in the source and are kept apart here.
What was measured:
[1] = Resazurin assay for cytotoxicity in HepG2 cells; assay type: cell-based, human; conditions: human, HepG2 cells; HepG2 cell line, 72 h, resazurin
Description: (§1) HepG2 cells were trypsinized, counted, and distributed in a 96-well plate at a density of 30,000 cells per well (180 μL). The plate was incubated at 37 °C and 5% CO2 for 24 h. Following incubation, 20 μL of serial dilutions of the tested compounds were added to the wells, with concentrations ranging from 30 to 0.47 μM. The plate was incubated for an additional 72 h at 37 °C and 5% CO2. Untreated cells served as positive controls, while wells containing only medium were used as negative controls. Postincubation, microscopy was employed to determine the highest compound concentration for treatment results. […] Concentration–response curves were generated, and half-maximal inhibitory concentration (CC50) values were determined using nonlinear regression analysis.

Rat hepatocyte stability = assay type: in vitro ADME; conditions: for R Heps (Clint): rat hepatocyte stability
Description: The reaction was terminated with the addition of ice-cold MeCN at designated time points. The samples were then centrifuged (4200 rpm) for 20 min at 20 °C, and the supernatant was half diluted in water and then analyzed using LCMS/MS. The % parent compound remaining, half-life (t 1/2), and clearance (CLint) were calculated using standard methodology. The experiment was carried out in duplicate. Diltiazem, 7-Ethoxy Coumarin, Propranolol, and Midazolam were used as reference standards.

[2] = Human liver microsome stability; assay type: in vitro ADME; conditions: human microsomal intrinsic clearance; for microsomal CLint at 1 μM: human, pooled human liver microsomes, read-out: hMics, human microsome Clint
Description: A solution of the test compounds in phosphate buffer solution (1 μM) was incubated in pooled human or mouse liver microsomes (0.5 mg/mL) for 0, 5, 20, 30, 45, and 60 min at 37 °C in the presence and absence of an NADPH regeneration system (NRS). The tests were conducted by […], India. The reaction was terminated with the addition of ice-cold acetonitrile, containing a […] standard, at designated time points. The sample was centrifuged (4200g) for 20 min at 20 °C and the supernatant was diluted by half in water and then analyzed by LC-MS/MS. The % parent compound remaining, half-life (t 1/2) and clearance (CLint) were calculated using standard methodology. The experiment was carried out in duplicate. Verapamil, diltiazem, phenacetin, and imipramine were used as reference standards.

[3] = tested on: P. falciparum 3D7 strain (Pf3D7); assay: Antiplasmodial activity against P. falciparum 3D7 blood-stage parasites (SYBR Green, 72 h); assay type: cell-based, Plasmodium falciparum
[4] = Kinetic solubility at pH 7.4; assay type: physicochemical; conditions: phosphate-buffered saline, 25 °C, pH 7.4, aqueous buffer, kinetic from dmso stock; read-out: Kinetic solubility (Sol)
Description: Kinetic solubility assay was performed using UV–vis detection. […] The samples were filtered using a multiscreen solubility filter plate. The filtrate was diluted by 50% with MeCN. A five-point linearity curve was prepared in PBS/MeCN (1:1, v/v) at 200, 150, 75, 25, and 2.5 μM. Blank, linearity, and test samples (n = 2) were transferred to a UV-readable plate, and the plate was scanned for absorbance. Best-fit calibration curves were constructed using the calibration standards and used to determine the test sample solubility. The experiment was carried out in duplicate. Diethylstilbestrol, Haloperidol, and Diclofenac Sodium were used as reference standards.

P. falciparum Dd2 strain = assay: Antiplasmodial activity against resistant P. falciparum Dd2; assay type: cell-based; conditions: Plasmodium falciparum, 3D7 / DD2; resistant Dd2, in parallel with 3D7; read-out: IC50^Dd2 ± SD
P. falciparum K1 strain = assay: Antiplasmodial activity against resistant P. falciparum K1; assay type: cell-based; conditions: Plasmodium falciparum, 3D7 / K1; resistant K1, in parallel with 3D7; read-out: IC50^K1 ± SD
[5] = eLogD at pH 7.4, miniaturized shake flask method; assay type: physicochemical; conditions: for logD at 2 h: 1-octanol/PBS (1:1, v/v), pH 7.4, pH 7.4, miniaturized shake flask method
Description: eLogD at pH 7.4 was determined using a miniaturized shake flask method. A solution of a presaturated mixture of 1-octanol and phosphate-buffered saline (PBS) (1:1, v/v) and the test compound (75 μM) was incubated at 25 °C with constant shaking (850 rpm) for 2h. After incubation, the organic and aqueous phases were separated, and samples of each phase were transferred to a plate for dilution. […] The samples were quantitated using LC-MS/MS. The experiment was carried out in duplicate. Propranolol, Amitriptyline, and Midazolam were used as reference standards.

P. falciparum = assay: Parasite reduction ratio (PRR) assay, in vitro rate of kill; assay type: cell-based, Plasmodium falciparum
Text: This library was designed to maximize chemical diversity and novelty of compounds with physicochemical properties consistent with potential for further development.

HepG2 cells = assay: Resazurin assay for cytotoxicity in HepG2 cells; assay type: cell-based, human; conditions: Homo sapiens, HepG2
Description: as §1

[6] = tested on: P. falciparum NF54 strain; assay: Antiplasmodial activity against P. falciparum NF54 (SYBR Green, 72 h); assay type: cell-based, Plasmodium falciparum; conditions: read-out: NF54-IC50
[7] = tested on: P. falciparum (3D7 strain) digestive vacuole; assay: Digestive vacuole homeostasis, acridine orange fluorescence; assay type: cell-based, Plasmodium falciparum; conditions: 10 μM, 3 min treatment, isolated parasites
Description: The sample was incubated for 40 min at 37 °C. […] Fluorescence was measured in a Hitachi F-7000 fluorimeter (Tokyo, Japan) by continuous measurement of the fluorescence (λex = 488 nm; λem = 560 nm) at 37 °C. Experiments were performed in triplicate.

[8] = tested on: P. falciparum Dd2 (chloroquine resistance); assay: Effect of verapamil on inhibitory activity in P. falciparum Dd2; assay type: cell-based; conditions: Plasmodium falciparum
[9] = tested on: P. falciparum 3D7 (chloroquine-sensitive); assay: Effect of verapamil on inhibitory activity in P. falciparum 3D7; assay type: cell-based; conditions: Plasmodium falciparum
[10] = tested on: P. vivax field isolates from Brazil; assay: Ex vivo drug susceptibility of P. vivax field isolates; assay type: cell-based; conditions: Plasmodium vivax; for IC50: read-out: median IC50 (range), P. vivax (9); for EC50: read-out: median EC50 against P. vivax field isolates
[11] = tested on: P. falciparum field isolates from Brazil; assay: Ex vivo drug susceptibility of P. falciparum field isolates; assay type: cell-based, Plasmodium falciparum; conditions: Plasmodium falciparum; for IC50: read-out: median IC50 (range), P. falciparum (7); for EC50: read-out: median EC50 against P. falciparum isolates
P. falciparum 3D7 clone = assay: Ex vivo schizont maturation assay, 3D7 laboratory strain control; assay type: cell-based; conditions: Plasmodium falciparum
[12] = tested on: synchronized P. falciparum parasites (3D7 strain); assay: P. falciparum asexual blood stage-specificity assay (8 h exposures); assay type: cell-based, Plasmodium falciparum
[13] = Plasmodium falciparum, 3D7, 72 h, 3D7 strain, 72 h, SYBR Green, read-out: Pf3D7-IC50
[14] = Plasmodium falciparum, 3D7 / DD2, sensitive 3D7, in parallel with K1 and Dd2, read-out: IC50^3D7 ± SD
[15] = 3D7 strain, 72 h, SYBR Green, read-out: Pf3D7-IC50

SMILES	CC50 at 72 h [1] [nM]	R Heps (Clint) (Rat hepatocyte stability) [μL/min/10^6]	microsomal CLint at 1 μM [2] [µL/min/mg]	IC50 [3, 13] [nM]	IC50 [3, 14] [nM]	solubility kinetic at 2 h [4] [µM]	IC50 (P. falciparum Dd2 strain) [nM]	IC50 (P. falciparum K1 strain) [nM]	logD at 2 h [5]	further results
CN1CCC(N(Cc2cccnc2)C(=O)c2cc3cc(Cl)ccc3[nH]2)CC1 [Compound 5t, 5-Chloro-N-(1-methylpiperidin-4-yl)-N-(pyridin-3-ylmethyl)-1H-indole-2-carboxamide]	> 30000	50	36	370 ± 40	300 ± 100	> 200	700 ± 200	500 ± 300	2.3	–
O=C(c1cc2cc(Cl)ccc2[nH]1)N(Cc1cccnc1)CC1CCNC1 (stereo not drawn) [Compound 6a, 5-Chloro-N-(pyridin-3-ylmethyl)-N-(pyrrolidin-3-ylmethyl)-1H-indole-2-carboxamide]	> 30000	15	4.6	1390	–	193 (≈ 71.2 µg/mL)	9100 ± 100	6400 ± 100	0.62	Parasite Reduction Rate (PRR), rate of kill (P. falciparum): as fast as that of CQ; also recorded: Fast-acting inhibitor; IC50 (HepG2 cells): > 20000 nM; hepatocyte CLint at 1 μM (Rat hepatocyte stability; pooled rat hepatocytes, rat hepatocyte intrinsic clearance, read-out: Rat hep Clint): 14.6 µL/min/1e6 cells; hMics, human microsome Clint [2]: 5 µL/min/mg; IC50 [3, 15]: 1400 nM and 1000 nM; IC50 ([6]; NF54 strain): 800 ± 400 nM; IC50 ([6]; Plasmodium falciparum, NF54, NF54 strain): 840 nM; LogD ([5]; pH 7.4, miniaturized shake flask method): 0.6
COc1ccc2[nH]c(C(=O)N(Cc3cccnc3)CC3CCNC3)cc2c1 (stereo not drawn) [Compound 6d, 5-Methoxy-N-(3-pyridylmethyl)-N-(pyrrolidin-3-ylmethyl)-1H-indole-2-carboxamide]	–	4	7	> 10000	–	> 1000	–	–	-0.4	effect on digestive vacuole H+ homeostasis (acridine orange fluorescence) [7]: strong interaction
Cl.O=C(c1cc2cc(Cl)ccc2[nH]1)N(Cc1cccnc1)C1CCNCC1 [Compound 6x, 5-Chloro-N-(piperidin-4-yl)-N-(pyridin-3-ylmethyl)-1H-indole-2-carboxamide hydrochloride]	> 30000	2	3	~300	400 ± 300	196	4700 ± 800	5200 ± 200	1	IC50 ([8]; read-out: IC50^Dd2 (10 μM VP), Dd2, presence of 10 μM verapamil): 560 nM; IC50 ([8]; Dd2, absence of verapamil, read-out: IC50^Dd2 (without VP)): 2940 nM; IC50 [3, 15]: 330 ± 80 nM; IC50 ([9]; 3D7, verapamil experiment, read-out: IC50 in 3D7 strain): ~150 nM; IC50 ([9]; read-out: IC50^3D7 (10 μM VP), 3D7, presence of 10 μM verapamil): 214 nM; IC50 ([9]; 3D7, absence of verapamil, read-out: IC50^3D7 (without VP)): 148 nM
O=C(c1cc2cc(C(F)(F)F)ccc2[nH]1)N(Cc1cccnc1)C1CCNCC1 [Compound 6y, N-(Piperidin-4-yl)-N-(pyridin-3-ylmethyl)-5-(trifluoromethyl)-1H-indole-2-carboxamide]	> 30000	4	17	220 ± 90	300 ± 100	> 200	1600 ± 300	2100 ± 200	1.4	–
C[C@H]1[C@H](OC(=O)CCC(=O)O)O[C@@H]2O[C@@]3(C)CC[C@H]4[C@H](C)CC[C@@H]1[C@@]24OO3 [artesunate]	–	–	–	–	–	–	–	–	–	IC50 ([10]; 9 clinical isolates, ex vivo): 1 nM; EC50 ([10]; ex vivo): 1 nM; IC50 ([11]; 7 clinical isolates, ex vivo): 0.6 nM; EC50 ([11]; ex vivo): 0.6 nM; IC50 (P. falciparum 3D7 clone; ex vivo assay conditions, 3D7 control, read-out: P. falciparum 3D7 IC50): 8 nM
CCN(CC)CCCC(C)Nc1ccnc2cc(Cl)ccc12 (stereo not drawn) [chloroquine, reference compound]	–	–	–	–	–	–	–	–	–	IC50 ([8]; DD2, read-out: IC50^Dd2 (without VP)): 655 nM; EC50 [10]: 295 nM; IC50 [10]: 295 nM; timing of peak activity (lowest IC50^8h) in asexual blood stages [12]: peak activity at ring and trophozoite stages; EC50 [11]: 1200 nM; IC50 [11]: 1200 nM; IC50 (P. falciparum 3D7 clone; 3D7, read-out: P. falciparum 3D7 IC50): 12 nM; IC50 ([9]; 3D7, read-out: IC50^3D7 (without VP)): 39.8 nM; IC50 ([9]; 3D7, read-out: IC50 in 3D7 strain): 40 to 50 nM

Reference: article PMC12531871, “Indole-2-carboxamides Optimization for Antiplasmodial Activity” (ACS Bio & Med Chem Au, 2025)
